“And” between values parts separate entries of the source, which are not always exact repeats. Equal entries are not always repeated.
Legend:
mature mongrel dogs = assay: Experiment A: anesthetic recovery in dogs, 1.0 mg/kg compound of Formula Ia vs saline control; format: in vivo
Protocol: (§1) The patients utilized in the study were maintained in standard facilities with appropriate heating and ventilation. All dogs were placed under general anesthesia. The duration of anesthesia, time to extubation and time to sternal recumbency were recorded. Also noted were behaviors indicative of dysphoria such as vocalization and purposeless movement. A visual analog scale (“VAS”) was used to score the “quality” of the entire recovery period.
(§2) As used herein, the term “duration of anesthesia” is the time in minutes elapsed between intubation and cessation of anesthetic gases.
(§3) As used herein, the term “time to extubation” is the time in minutes elapsed between cessation of anesthetic gases and the need for removal of the endotracheal tube due to spontaneous swallowing.
(§4) As used herein, the term “time to Sternal Recumbency” is the time in minutes elapsed between cessation of anesthetic gases and the time the dog could physically place and maintain itself in sternal recumbency.
(§5) Evaluation of Recovery Period. A visual analog scale (“VAS”) was used to score the “quality” of the recovery period (0=smooth recovery, 10=rough recovery). Factors considered included, but were not limited to, vocalization, purposeless movement as well as the subjective degree of dysphoria experienced by the dog. The study director, who was blinded to treatment assignments, assigned recovery scores.
(§6) Statistical Analysis. Data from two trials conducted according to the above procedure were combined for analysis purposes. The data in the following Tables and Figures are mean±standard deviation. Duration of anesthesia, time to extubation and time to sternal recumbency data were analyzed using a paired t-test for means in Excel. Recovery VAS data were analyzed using SAS Statistical Software.
Experimental mature mongrel dogs, both male and female, weighing about 16-26 kilograms, were subcutaneously administered 1.0 mg/kg compound of Formula Ia one hour prior to preanesthetic administration. Control dogs were subcutaneously administered an equivalent volume of saline solution one hour prior to preanesthetic administration. The duration of anesthesia, time to extubation and time to sternal recumbency were recorded. The patients were monitored continuously during the anesthetic and recovery periods.
(§7) Preparation of 1.0 mg/kg compound of Formula Ia dose: Formulations were prepared by dissolving the compound of Formula Ia (10 mg/mL) and SBE-CD (10%) in distilled water to form a solution. The solution was sonicated to facilitate complete dissolution and filtered through a 0.22 μm Millipore syringe top filter prior to injection.
Administration of Dose: Solutions of compound of Formula Ia (1.0 mg/kg) or saline placebo (0.1 mL/kg) were administered by subcutaneous injection (“SC”).
Anesthetic Protocol: General anesthesia was induced using the following protocol: (1) One hour prior to preanesthetic administration, the patients were treated with subcutaneous administration of either a dose of compound of Formula Ia, as prepared above, or the saline control (0.1 mL/kg).
(2) Thirty (30) minutes prior to induction (preanesthetic), the patients were administered glycopyrrolate (0.01 mg/kg SC) and butorphanol (0.1 mg/kg SC).
(3) During the induction period, the patients were administered intravenous methohexital (8 mg/kg IV).
(4) The patients were then maintained with inhaled isoflurane at concentrations ranging from 0.5 to 3%.

geriatric beagles = assay: Experiment B: recovery from general anesthesia in beagle dogs, 0.5 mg/kg compound of Formula Ia; format: in vivo
Protocol: as §1, §2, §3, §4, §5, §6
Fifteen experimental geriatric beagles, weighing 9-16 kilograms and undergoing anesthesia for dental prophylaxis, were used in this study. All dogs were fasted overnight prior to anesthesia. Experimental dogs were subcutaneously administered 0.5 mg/kg compound of Formula Ia at the time of pre-anesthetic medication. Control dogs received no treatment in addition to routine pre-anesthesia medications. The duration of anesthesia, time to extubation and time to sternal recumbency were recorded.
as §7, with “0.5” for “1.0”
Administration of Dose: Solutions of compound of Formula Ia (0.5 mg/kg) were administered by subcutaneous injection.
Anesthetic Protocol: General anesthesia was induced and maintained using the following protocol:
(1) Preanesthetic administration: the Experimental patients were treated with subcutaneous administration of a dose of compound of Formula Ia, as prepared above. Both experimental and control patients were administered glycopyrrolate (0.01 mg/kg SC), butorphanol (0.1 mg/kg SC) and penicillin (30,000 units/kg SC)
(2) During the induction period, the patients were administered intravenous methohexital (8 mg/kg IV).
(3) The patients were then maintained with inhalant isoflurane at concentrations ranging from 0.5 to 3%.
The patients were monitored continuously during the anesthetic and recovery periods.

[1] = 1 mg/kg SC one hour prior to preanesthetic, individual dogs
[2] = 1 mg/kg SC, Mean ± SD of 12 dogs
[3] = 0.5 mg/kg SC at time of pre-anesthetic medication, beagle dogs

SMILES: COc1ccc(C(C)(C)C)cc1CN[C@H]1C2CCN(CC2)[C@H]1C(c1ccccc1)c1ccccc1 [Compound of Formula Ia, (2S,3S)-2-benzhydryl-N-(5-tert-butyl-2-methoxybenzyl)quinuclidin-3-amine]
- Time to extubation compared with saline group (mature mongrel dogs; 1 mg/kg SC): similar
- Time to sternal recumbency compared with saline group (mature mongrel dogs; 1 mg/kg SC): similar
- Time to Extubation (mature mongrel dogs; [1]): 2 min (4×) and 1 min (2×) and 3 min and 5 min (3×) and 4 min (2×)
- Time to Sternal Recumbency (mature mongrel dogs; [1]): 4 min and 3 min (4×) and 6 min (2×) and 1 min and 11 min and 9 min (2×) and 7 min
- Time to Extubation (mature mongrel dogs; [2]): 3 ± 2 min
- Time to Sternal Recumbency (mature mongrel dogs; [2]): 5 ± 3 min
- Recovery Quality (mature mongrel dogs; 1 mg/kg SC, VAS 0=smooth recovery, 10=rough recovery, individual dogs): 7.1 cm and 1.4 cm and 2.1 cm and 0.7 cm and 0.9 cm and 3.9 cm and 0.2 cm and 1.1 cm and 1.8 cm and 1.9 cm and 4.7 cm and 2.4 cm
- Recovery Quality (mature mongrel dogs; 1 mg/kg SC, VAS 0=smooth, 10=rough, Mean ± SD of 12 dogs, p=0.02 vs saline): 2.3 ± 2 cm
- Recovery scores compared with saline (mature mongrel dogs; 1 mg/kg SC, p=0.02): significantly lower recovery scores
- Recovery VAS scores lower than saline controls (mature mongrel dogs; 1 mg/kg SC, vs saline controls): 43.9%
- Time to extubation, experimental vs control group (geriatric beagles; 0.5 mg/kg SC): no statistical difference
- Time to sternal recumbency, experimental vs control group (geriatric beagles; 0.5 mg/kg SC): no statistical difference
- Visual analog score for smoothness of recovery period, experimental vs control group (geriatric beagles; 0.5 mg/kg SC): no statistical difference
- Time to Extubation Mean ± SD (geriatric beagles; [3]): 5.00 ± 4.47 min
- Time to Sternal Recumbency Mean ± SD (geriatric beagles; [3]): 10.86 ± 10.67 min
- Subjective appearance during the recovery period vs control dogs (geriatric beagles; 0.5 mg/kg SC during the preoperative period): tended to look less anxious
- Recovery Score Mean ± SD (geriatric beagles; 0.5 mg/kg SC, VAS 0=smooth, 10=rough, beagle dogs): 3.46 ± 1.54 cm
- Treated dogs that received visual analog scores of less than 5 cm (geriatric beagles; 0.5 mg/kg SC, control dogs 4 out of 8): 7 out of 7

From patent US20070155782A1, “Nk-1 receptor antagonists anesthesia recovery” (priority 2004, published 2007)
